Key:
blotches and lentigines = experiment: Lotion applied to blotches and lentigines (general description); assay type: in vivo, human; details: lotion containing 0.5 (w/w)%; applied one or two times daily; about one month
Description: The effect was also noted on blotches formed on the acne scars, showing clear difference compared with the pre-treatment conditions.

[1] = system: lentigo (1-mm diameter) on the arm; experiment: Test Example 5: topical application to a lentigo on the arm; assay type: in vivo, human; details: topically applied twice daily, preparation according to Preparation Example 1, two months later
Protocol: To a lentigo (1-mm diameter) on the arm was topically applied twice daily a preparation that was prepared according to Preparation Example 1 except that N-(6,8-dimercaptooctanoyl)histidine sodium/zinc chelate of Example 2 was used instead of N-(6,8-dimercaptooctanoyl)anthranilic acid sodium/zinc chelate of Example 2.

| Substance | melanin eliminating effect on blotches and lentigines (fading from black to pale umber or falling off as a scab) (blotches and lentigines) | elimination of black color of lentigo [1] |
| --- | --- | --- |
| N-(6,8-dimercaptooctanoyl)-3-aminopropionic acid sodium/zinc chelate compound [Example 10] | satisfactory effects | – |
| N-(6,8-dimercaptooctanoyl)anthranilic acid sodium/zinc chelate compound [Reference Example 8] | satisfactory effects | – |
| N-(6,8-dimercaptooctanoyl)histidine sodium/zinc chelate compound [Example 2] | – | the black color was found eliminated leaving a subtle scar behind |

— patent US20090093541A1, “MELANIN ELIMINATOR PREPARATION” (OGA RESEARCH, INC, priority 2002, published 2009)
